Results published in PubChem BioAssay AID206 (DTP/NCI, 2004).
“And” between values parts separate entries of the source, which are not always exact repeats. Identical values can stand only once. Inconclusive results are not listed.

Test system: nude mice, HT29 intrarenal xenograft, tumor weight T/C
Assay: NCI In Vivo Anticancer Drug Screen. Data for tumor model HT29;CX-1 Human Adenocarcinoma (MER+) (intrarenal inoculation) in NU/NU Swiss (nude) mice
Settings: endpoint: mean tumor weight change, higher = larger tumour
Procedure: The antitumor activity of compounds was measured in mice bearing transplantable tumors. Survival or tumor size were measured and the results are expressed as the measurement made in the treated group (T) divided by the measurement made in the vehicle treated control group (C). The tumor model used in this assay is HT29;CX-1 Human Adenocarcinoma (MER+) (intrarenal inoculation) in NU/NU Swiss (nude) mice

[1] = dose: 300.0 mg/kg/injection, schedule: Q04DX004 (sc), vehicle: Klucel (hydroxypropylcellulose) (HPC)
[2] = dose: 600.0 mg/kg/injection, schedule: Q04DX004 (sc), vehicle: Klucel (hydroxypropylcellulose) (HPC)

In the case of `Cc1ccc(C2NC(=S)N3C(c4ccc(C)cc4)NC(=S)N23)cc1` (centres undefined), the T/C [1] is reported as 75 % of control, the T/C [2] is reported as 80 % of control and the T/C (dose: 1200.0 mg/kg/injection, schedule: Q04DX004 (sc), vehicle: Klucel (hydroxypropylcellulose) (HPC)) is reported as 69 % of control. The T/C (dose: 2400.0 mg/kg/injection, schedule: Q04DX004 (sc), vehicle: Klucel (hydroxypropylcellulose) (HPC)) was 75 % of control.
With `CCCNC1=C(C)C(=O)C2=C(C1=O)[C@H](COC(N)=O)[C@]1(OC)[C@@H]3N[C@@H]3CN21` the T/C (dose: 6.0 mg/kg/injection, schedule: Q04DX003 (sc), vehicle: saline) was 78 % of control and the T/C (dose: 12.0 mg/kg/injection, schedule: Q04DX003 (sc), vehicle: saline) was 1 % of control.
For `COC1/C=C\C=C(/C)C(=O)NC2=CC(=O)C=C(C2=O)C(OC)C(C)CC(OC)C(OC)C(C)/C=C(/C)C1OC(N)=O` (centres undefined), the T/C (dose: 2.25 mg/kg/injection, schedule: Q04DX004 (sc), vehicle: Klucel (hydroxypropylcellulose) (HPC)) was 92 % of control and 95 % of control, the T/C (dose: 4.5 mg/kg/injection, schedule: Q04DX004 (sc), vehicle: Klucel (hydroxypropylcellulose) (HPC)) was 33 % of control and the T/C (dose: 9.0 mg/kg/injection, schedule: Q04DX004 (sc), vehicle: Klucel (hydroxypropylcellulose) (HPC)) was 4 % of control.
For `NC(=S)c1cn(C2OC(CO)C(O)C2O)c2ncnc(N)c12` (centres undefined), the T/C (dose: 6.25 mg/kg/injection, schedule: Q04DX004 (sc), vehicle: suspension in saline) was 62 % of control and the T/C (dose: 12.5 mg/kg/injection, schedule: Q04DX004 (sc), vehicle: suspension in saline) was 79 % of control.
In the case of `Nc1ccn(C2OC(CO)C(O)C2O)c(=O)n1` (centres undefined), the T/C (dose: 15.63 mg/kg/injection, schedule: Q01DX010 (sc), vehicle: water) is reported as 100 % of control, the T/C (dose: 31.25 mg/kg/injection, schedule: Q01DX010 (sc), vehicle: water) is reported as 102 % of control and the T/C (dose: 500.0 mg/kg/injection, schedule: Q04DX004 (sc), vehicle: saline) is reported as 62 % of control. For the same compound, the T/C (dose: 600.0 mg/kg/injection, schedule: Q04DX004 (sc), vehicle: saline) was 77 % of control and the T/C (dose: 1000.0 mg/kg/injection, schedule: Q04DX004 (sc), vehicle: saline) was 19 % of control.
For `COc1ccc(CC2C(=O)NC(C)C(=O)N(C)C3C(=O)N(C)C(Cc4ccc(O)c(c4)Oc4ccc(cc4)C3O)C(=O)NC(C)C(=O)NC(C)C(=O)N2C)cc1` (centres undefined), the T/C (dose: 0.25 mg/kg/injection, schedule: Q01DX010 (sc), vehicle: saline with Tween-80) was 94 % of control.
With `CC(=O)Nc1ccc(S(=O)(=O)CO)cc1` the T/C (dose: 225.0 mg/kg/injection, schedule: Q04DX004 (sc), vehicle: saline with Tween-80) was 73 % of control and the T/C (dose: 450.0 mg/kg/injection, schedule: Q04DX004 (sc), vehicle: saline with Tween-80) was 57 % of control.
`CN(C)C(=O)SC1=C(c2c(Cl)cccc2Cl)C(=O)c2ccccc21` was tested, and the T/C [1] was 95 % of control and the T/C [2] was 158 % of control.
With `Cc1c2cc(Cl)c3ccccc3c2c[n+]2ccccc12` the T/C (dose: 300.0 mg/kg/injection, schedule: Q04DX004 (sc), vehicle: saline with Tween-80) was 101 % of control, the T/C (dose: 600.0 mg/kg/injection, schedule: Q04DX004 (sc), vehicle: saline with Tween-80) was 82 % of control and the T/C (dose: 1200.0 mg/kg/injection, schedule: Q04DX004 (sc), vehicle: saline with Tween-80) was 103 % of control.
`Cc1ccccc1N(CC1CO1)CC1CO1` (centres undefined) was tested, and the T/C (dose: 50.0 mg/kg/injection, schedule: Q01DX010 (sc), vehicle: suspension in saline) was 157 % of control, the T/C (dose: 100.0 mg/kg/injection, schedule: Q01DX010 (sc), vehicle: suspension in saline) was 38 % of control and the T/C (dose: 200.0 mg/kg/injection, schedule: Q01DX010 (sc), vehicle: suspension in saline) was 15 % of control. For the same compound, the T/C (dose: 800.0 mg/kg/injection, schedule: Q01DX010 (sc), vehicle: suspension in saline) was 67 % of control.
`COc1ccc(-c2cc(C(=O)Nc3cc(C(F)(F)F)cc(C(F)(F)F)c3)c3ccccc3n2)cc1` was tested, and the T/C (dose: 300.0 mg/kg/injection, schedule: Q04DX004 (ip), vehicle: DMSO) was 115 % of control and the T/C (dose: 600.0 mg/kg/injection, schedule: Q04DX004 (ip), vehicle: DMSO) was 50 % of control.
With `Cc1cc(NCCN(C(C)C)C(C)C)nc(/N=C(\N)Nc2ccc(Cl)c(C(F)(F)F)c2)n1` the T/C (dose: 20.0 mg/kg/injection, schedule: Q04DX004 (sc), vehicle: Klucel (hydroxypropylcellulose) (HPC)) was 62 % of control, the T/C (dose: 40.0 mg/kg/injection, schedule: Q04DX004 (sc), vehicle: Klucel (hydroxypropylcellulose) (HPC)) was 51 % of control and the T/C (dose: 80.0 mg/kg/injection, schedule: Q04DX004 (sc), vehicle: Klucel (hydroxypropylcellulose) (HPC)) was 78 % of control. The T/C (dose: 160.0 mg/kg/injection, schedule: Q04DX004 (sc), vehicle: Klucel (hydroxypropylcellulose) (HPC)) was 62 % of control.
